Assays:
[1] = test system: rats exposed to radiation; assay: Radiation-induced dermatitis model in rats (15 Gy), topical polyamine effector; type: in vivo, Sprague Dawley rat; details: for Avg dermatitis score: 15 Gy, vehicle 3.0
Method: To determine if treatment with a polyamine effector could effectively prevent radiation-induced dermatitis, adult rats were topically treated with several different classes of polyamine effectors before and after radiation treatment. Rats were exposed to medically relevant levels of radiation that could induce clinical radiation dermatitis. Sprague Dawley rats (Harlen Spraque Dawley) at 4–6 weeks-old were anesthetized with sodium pentobarbital at 40 mg/kg body weight (Sigma, St. Louis, Mo.) prior to radiation exposure. A defined, depilated area on the backs of rats was irradiated using a Mark I, Model 30, Cs 137 irradiator (J. L. Sheppard & Associates). Briefly, the back was stripped of hair to expose the skin using a 1:1 rosin/beeswax mixture. The rest of the body was protected from radiation exposure using a lead shield. A dose response study was initially preformed to reproduce relevant dermatitis that matched the Grade (I–IV) scale used to score the severity of radiation-induced dermatitis in the clinical setting. Radiation doses of 5–7 Gray (1 Gray (Gy)=[…]) produced Grade I dermatitis within 8–10 days. Radiation doses of 7–10 Gy produced Grade II dermatitis within 8–10 days. After 8–10 days, severe radiation dermatitis was produced at 20–25 Gy (Grade III dermatitis) or at 30–35 Gy (Grade IV). Radiation dermatitis of Grade II–III was considered most clinically relevant, so a radiation challenge dose of 15 Gy in the rats was used in subsequent treatment experiments. The stripped back region on the rats was treated topically with 10–50 mM polyamine effector once daily for 5 days before and 5 days after radiation challenge.
Different classes (natural polyamines and biosynthetic inhibitors) of polyamine effector agents were tested in this model. The polyamine effector compounds were purchased from Sigma Chemicals Co. (St. Louis, Mo.), except Vaniqa, a commercially available cream containing DFMO at 13.9% ([…]). The effectors were prepared in a delivery vehicle, consisting of from 60–100% ethanol in water, depending on the solubility of the compound. The compounds in ethanol/water solution from 100–150 μl in volume were topically administered to the stripped region. Rats treated with only the delivery vehicle served as controls. Eight to ten days post-radiation challenge, the rats were evaluated for dermatitis using a modified scoring scale described by Masuda K. et al. Int. J. Radiation Oncol. Biol. Phys: 12, 1645 (1986). Dermatitis score of 0=normal, 1=slight redness, scaly skin with no focal lesions, 2=moderate redness, breakdown of larger area, some small focal lesions, 3=skin very red, breakdown of most of the irradiated area, large ulcers and crusty lesions, 4=skin very red, breakdown of the entire irradiated area, severe exudation and large crusty lesions.
To determine if treatment with a non-natural polyamine analog could effectively prevent radiation-induced dermatitis, adult rats were topically treated with a polyamine analog before and after radiation treatment. Rats were exposed to medically relevant levels of radiation that could induce clinical radiation dermatitis. Sprague Dawley rats (Harlan Spraque Dawley) at 4–6 weeks old were anesthetized with sodium pentobarbital at 40 mg/kg body weight (Sigma, St. Louis, Mo.) prior to radiation exposure. A defined, depilated area on the backs of rats was irradiated using a Mark I, Model 30, Cs 137 irradiator (J. L. Sheppard & Associates). Briefly, back hair was removed to expose the skin by using Oster electric clippers followed by a safety razor. The rest of the body was protected from radiation exposure using a lead shield. A dose response study was initially preformed to reproduce relevant dermatitis that matched the Grade (I–IV) scale used to score the severity of radiation-induced dermatitis in the clinical setting. Radiation doses of 5–7 Gray (1 Gray (Gy)=[…]) produced Grade I dermatitis within 8–10 days. […]

[2] = test system: rat pups challenged with cytoxan; assay: Cytoxan (CTX)-induced alopecia model in rat pups, topical polyamine effector; type: in vivo, Sprague Dawley rat; details: for efficacy in the rat alopecia and/or dermatitis model: Examples 6, 7 and 8
Method: (§1) Induction of alopecia by cytoxan (CTX). Lactating Sprague Dawley mother rats with rat pups were purchased from Harlan Sprague Dawley (Indianapolis, Ind.). The mother rats were given food and water ad libitum. The rats pups were tested in the model of chemotherapy-induced alopecia described by Hussein A. M. et al., Science: 249, 1564 (1990). Cytoxan (CTX), a chemotherapeutic widely used in the treatment of cancer, was used to induce alopecia in the rats. A common side effect of cytoxan in patients is alopecia. Cytoxan and polyamine effector compounds were purchased from Sigma Chemicals Co. (St. Louis, Mo.). To produce CTX-induced alopecia, 7 to 10 day old rat pups were injected i.p. with 35 mg/kg of CTX prepared in phosphate-buffered saline. To produce reproducible CTX induced alopecia, we first tested several concentrations (35, 40, 45 ug/gm body weight) of CTX in phosphate-buffered saline (PBS), which was injected i.p. in 7–10 day old pups. Seven to ten days after CTX treatment the pups were examined to determine the degree of hair loss. The density of hair on the pups was then determined. 100% hair density represents that found on the untreated control pups while 0% represented pups with total hair loss. It was observed that 35 ug/gm of CTX was sufficient to induce 100% hair loss approximately 7 days after cytoxan challenge, and this concentration was used in subsequent experiments.
Different types of polyamine effector agents were tested in this model. The effectors were prepared in a delivery vehicle, consisting of from 60–100% ethanol in water, depending on the solubility of the compound. The compounds in ethanol/water solution from 50–150 μl in volume were topically administered to the backs of the pups once per day before and after CTX challenge. Using a micropipette, the formulation was applied to approximately 2 cm^2 section of skin to the backs of the rat pups. Specifically, the pups were treated once daily for the 4–5 days before CTX challenge, once on the day of CTX challenge and once daily for 5 days afterwards. Control groups consisted of pups receiving only delivery vehicle. Control groups treated with delivery vehicle were tested as part of every treatment study. Two or more animals were tested per group in both the control and test groups.
Approximately 7 to 10 days after CTX treatment, the pups were evaluated for alopecia. Hair loss was evaluated using a modified alopecia-scoring index described by Chen G. et al., Int. J. Cancer: 75, 303 (1998). A score of 0=no hair loss; a score of 1=10–30% hair loss; a score of 2=40–60% hair loss; a score of 3=70–90% hair loss; and a score of 4=100% hair loss.
as §1, with “It was observed that 35 ug/gm of CTX was sufficient to induce 100% hair loss approximately 7 days after cytoxan challenge, and this concentration was used in subsequent experiments.” left out

DNA = details: in vitro; Basu et al. 1993; cited from earlier work
[3] = test system: rat pups challenged with cytarbine; assay: Cytarbine-induced alopecia model in rat pups; type: in vivo; details: treatment (1 mM), vehicle 4.0
From the text: (§2) Alopecia was induced in rat pups by Cytoxan, cytarbine, doxorubicin and radiation, according to the methods described in the previous examples. Polyamines from three different structural families, obtained from two different sources, gave excellent results in animal alopecia models for Cytoxan, cytarbine and doxorubicin.

[4] = test system: rat pups challenged with doxorubicin; assay: Doxorubicin-induced alopecia model in rat pups; type: in vivo; details: vehicle 4.0
From the text: as §2

[5] = 10 mM in ethanol/water, scale 0-4
[6] = 1 mM topical (Example 1), scale 0-4, vehicle 4.0
[7] = 5 mM topical (Example 1), scale 0-4, vehicle 4.0
[8] = 10 mM topical, scale 0-4, vehicle 4.0
[9] = 20 mM topical, scale 0-4, vehicle 4.0
[10] = Example 1, concentrations tested
[11] = 50 mM topical, scale 0-4, vehicle 4.0
[12] = 50 mM in ethanol/water, scale 0-4
[13] = Example 6, 5 mM in 70% ethanol, topical, scale 0-4, vehicle 4.0

Cl.NCCC[C@](N)(C(=O)O)C(F)F (racemic) [DFMO, DL-Alpha Difluoromethylornithine HCl, reference compound]
Avg dermatitis score [1, 5]: 2.5
Avg Alopecia Score [2, 6]: 4.0
Avg Alopecia Score [2, 7]: 2.0
Avg Alopecia Score [2, 8]: 2.0
Avg Alopecia Score [2, 9]: 3.5
effect on CTX-induced alopecia ([2]; Example 1, 5–10 mM): effectively prevented alopecia

N=C(N)NCCCCN [Agmatine]
Avg dermatitis score [1, 5]: 1.8
Avg dermatitis score ([1]; 20 mM in ethanol/water, scale 0 (normal) to 4): 2.0
Avg Alopecia Score [2, 6]: 3.0
Avg Alopecia Score [2, 8]: 3.0
effect on CTX-induced alopecia [2, 10]: reduced, but did not prevent alopecia

C[C@](N)(CCCN)C(=O)O [Alpha-Methyl ornithine, reference compound]
Avg Alopecia Score [2, 7]: 4.0
Avg Alopecia Score [2, 9]: 4.0
effect on CTX-induced alopecia [2, 10]: did not prevent hair loss

CCNCCCNCCCNCCCNCC [BE-3-3-3, N1, N11-bis (ethyl) norspermine]
Avg Alopecia Score [2, 6]: 2.7
Avg Alopecia Score [2, 7]: 2.3
Avg Alopecia Score [2, 9]: 1.7
Alopecia Score +/- SEM ([2]; Expt. 1, 1 mM, vehicle 4.0 +/- 0.0): 3.5 +/− 0.7
Alopecia Score +/- SEM ([2]; Expt. 1, 10 mM, vehicle 4.0 +/- 0.0): 1.5 +/− 0.7
Alopecia Score +/- SEM ([2]; Expt. 2, 1 mM, vehicle 3.5 +/- 0.7): 2.5 +/− 0.3
Alopecia Score +/- SEM ([2]; Expt. 2, 10 mM, vehicle 3.5 +/- 0.7): 0.25 +/− 0.3
Alopecia Score +/- SEM ([2]; Expt. 3, 1 mM, vehicle 4.0 +/- 0.0): 2.7 +/− 0.4
Alopecia Score +/- SEM ([2]; Expt. 3, 10 mM, vehicle 4.0 +/- 0.0): 2.0 +/− 0.3
Avg Alopecia Score ([2]; Table 15, several data sets at multiple concentrations): 0.3–1.5

CCNCCCCNCCCCNCCCCNCC [BE-4-4-4, 1N,14N-Bisethylhomospermine]
DNA binding and aggregation (DNA): binds to DNA in vitro but does not aggregate it

CCNCCCCNCCCCNCCCCNCCCCNCC [BE-4-4-4-4, 3,8,13,18,23-Pentaazapentacosane]
DNA binding and aggregation (DNA): both binds DNA and aggregates it

NCCCCCN [Cadaverine]
Avg Alopecia Score [2, 7]: 4.0
Avg Alopecia Score [2, 11]: 2.5

NC(=NCCC[C@H](N)C(=O)O)NO [NOHA, NG-hydroxy-arginine]
Avg Alopecia Score [2, 7]: 2.75

NCCCNCCCN [Norspermidine]
Avg Alopecia Score [2, 7]: 4.0
Avg Alopecia Score [2, 11]: 2.0

NCCCCN [Putrescine]
Avg dermatitis score [1, 12]: 3.0
Avg Alopecia Score ([2]; 2 mM topical, scale 0-4, vehicle 4.0): 3.0
Avg Alopecia Score [2, 7]: 2.5
Avg Alopecia Score [2, 8]: 2.0
Avg Alopecia Score [2, 11]: 1.5

CCNCCCNCC1CC1CNCCCNCC (stereo not drawn) [SL-11038]
efficacy in the rat alopecia and/or dermatitis model ([2]; 5 mM): showed efficacy
Avg Alopecia Score [2, 13]: 3.5

CCNCCCNCC1CCC1CNCCCNCC (stereo not drawn) [SL-11044]
Avg Alopecia Score [2, 13]: 2.5

CCNCCCNCC#CCNCCCNCC [SL-11091]
Avg Alopecia Score [2, 13]: 3.0

CNCCCNCC#CCNCCCNC [SL-11092]
efficacy in the rat alopecia and/or dermatitis model ([2]; 5 mM): showed efficacy
Avg Alopecia Score ([2]; Table 10, treatment (1 mM), vehicle 4.0): 0.0
Avg Alopecia Score ([2]; Table 15, cytoxan-induced, re-screening summary): 0.0

CCNCCCCNCC#CCNCCCCNCC [SL-11103]
efficacy in the rat alopecia and/or dermatitis model ([2]; 5 mM): showed efficacy

CCNCCCCNCCCCNCCCCNCCCCNCCO [SL-11141]
efficacy in the rat alopecia and/or dermatitis model ([2]; 5 mM): showed efficacy
effectiveness at preventing alopecia after CTX treatment ([2]; Example 6, 5 mM): less effective
Avg Alopecia Score [2, 13]: 3.3

CCNCCCCNCCCCNCCCCNCCCCNC/C=C/CNCCCCNCCCCNCCCCNCCCCNCC [SL-11144]
activity in both the alopecia and dermatitis models ([2]; 5 mM, versus naturally-occurring polyamines or simple polyamine analogs): overall greater activity
Avg Alopecia Scores [3]: 3.0
Avg Alopecia Score [4]: 0.0

NCCCCNCCCN [Spermidine]
Avg Alopecia Score [2, 8]: 2.0
Avg Alopecia Score [2, 11]: 3.5

NCCCNCCCCNCCCN [Spermine]
Avg dermatitis score [1, 12]: 2.8
Avg Alopecia Score [2, 9]: 3.0
Avg Alopecia Score [2, 11]: 2.0
Avg Alopecia Score ([2]; 100 mM topical once daily in ethanol/water, scale 0 (no hair loss) to 4 (100% hair loss), vehicle 4.0): 0.0

NCCCNCCSP(=O)(O)O [amifostine, S-2-(3-aminopropylamino) ethylphoshorothioic acid, reference compound]
radioprotective activity ([1]; radiation-induced dermatitis assay, as compared with putrescine): good radioprotective activity

Source: patent publication US7045550B2, “Polyamines and analogs for protecting cells during cancer chemotherapy and radiotherapy” (Wisconsin Alumni Research Foundation, priority 2001, dated 2006)
